According to patent US9359298B2, “Cajanine structure analogous compound, preparation method and use” (INSTITUTE OF MEDICINAL BIOTECHNOLOGY, CHINESE ACADEMY OF …, priority 2011, dated 2016):
In brackets after ≈: the same amount, converted by molar mass. Where two headings read alike, the source gives them in different places.

Legend:
Assay type in all cases: cell-based
HIV-1 III B virus = test: Anti-HIV activity assay (P24 antigen in MT-4 cells); details: for IC50: Human immunodeficiency virus 1, MT4, 96 h, read-out: HIV IC50; for anti-HIV viral activity: statement in words
[1] = system: Influenza A virus (hanfang359/95); test: Determination of anti-influenza virus activity (CPE in MDCK cells); details: for IC50: Influenza A virus, MDCK, 36 h; for anti-influenza virus activities compared with the lead compound cajanine: statement in words
PC12 cells [2] = test: Neuroprotective activity assay, serum-deprived injury to PC12 cells (MTT); details: for viability at 10 µM: Rattus norvegicus, PC-12, 48 h, read-out: serum-deprived (surviving PC12 cells, MTT 570 nm); for protective effect on serum-deprived injury to PC12 cells: statement in words
Procedure: (§1) Discard the original culture media from confluent monolayers of PC12 cells (simulated neuronal cells), add DMEM complete medium with 5% FBS, 5% horse serum gently beat upon the cells with a pipette to completely disperse them, inoculate 100 μl cell suspension at a density of […] per well to 96 hole plates treated with poly-lysine (0.1 mg/ml) in advance, culture for 24h. Divide the experimenting cells into control group, model group and dosing groups. Add complete medium to the control group. Model groups includes rotenone group and serum-deprived group, add rotenone to the corresponding modules with a final concentration of 4 μM rotenone to take effect on the cells for 48 h, add serum-deprived groups with serum-free DMEM medium to take effect on the cells for 48 h. Dosing groups also includes two groups, one using rotenone module as model, another using serum-deprived module as model, and both add in 10 μM test compounds during modeling. 48h later, add 10 μl 5 mg/ml MTT, subsequently discard the supernatant 4h later and add in 150 μl DMSO, measure 570 nm absorbance to represent the numbers of surviving cells.

HCV = test: Anti-hepatitis C virus (HCV) activity assay (HCV RNA in Huh7.5 cells); details: for EC50: Hepatitis C virus, Huh7.5, 72 h, read-out: HCV EC50; for anti-HCV viral activity: statement in words
Procedure: Inoculate Huh7.5 cells into 96-well plates to a density of 3×10^4 cells/cm^2, culture for 24h, infect the cells with 45 IU/cell HCV supernatant, meanwhile, add drug solutions or solvent control for treatment.

Coxsackie virus B6 = test: Coxsackie virus activity assay (CPE in Vero cells); details: for IC50: Vero, read-out: COX-B6 IC50, Vero cells, about 100TCID50, CPE, Reed-Muench
PC12 cells [3] = test: Neuroprotective activity assay, rotenone injury to PC12 cells (MTT); details: for viability at 10 µM: Rattus norvegicus, PC-12, 48 h, read-out: rotenone (surviving PC12 cells, MTT 570 nm); for protective effect on rotenone injury to PC12 cells: statement in words
Procedure: as §1

[4] = MT-4 cells, HIV-1 III B 100TCID50, 96 h, P24 antigen
[5] = 10 μM test compound, 48 h, Control 100.0 ± 9.2, Model 69.3 ± 4.1
[6] = Huh7.5 cells, 72 h, HCV RNA by RT-PCR, Reed-Muench
[7] = 10 μM test compound, 4 μM rotenone, 48 h, Control 100.0 ± 8.9, Model 73.2 ± 7.8

Structure (SMILES)	IC50 (HIV-1 III B virus; [4])	anti-HIV viral activity (HIV-1 III B virus)	IC50 [1]	anti-influenza virus activities compared with the lead compound cajanine [1]	viability at 10 µM (PC12 cells [2]; [5])	EC50 (HCV; [6])	anti-HCV viral activity (HCV)	IC50 (Coxsackie virus B6)	viability at 10 µM (PC12 cells [3]; [7])	EC50 (HCV)	HIV IC50 (HIV-1 III B virus; [4])	Influenza A virus (hanfang359/95) IC50 [1]	serum-deprived (surviving PC12 cells, MTT 570 nm) (PC12 cells [2]; [5])	HCV EC50 (HCV; [6])	COX-B6 IC50 (Coxsackie virus B6)	rotenone (surviving PC12 cells, MTT 570 nm) (PC12 cells [3]; [7])	protective effect on serum-deprived injury to PC12 cells (PC12 cells [2])	protective effect on rotenone injury to PC12 cells (PC12 cells [3])	IC50 (HIV-1 III B virus)
COc1cc(/C=C/CCc2ccccc2)c(C(=O)O)c(O)c1CC=C(C)C [Compound 1l, 2-hydroxy-3-isopentenyl-4-methoxy-6-[(E)-4′-phenylbuten-1′-yl]benzoic acid]	1.64 µg/mL (≈ 4.48 µM)	stronger anti-HIV, HCV viral activities	0.36 µg/mL (≈ 0.982 µM)	significantly stronger than the lead compound cajanine	27.2 ± 7.2%	0.65 µg/mL (≈ 1.77 µM)	stronger anti-HIV, HCV viral activities	> 2.06 µg/mL	58.4 ± 1.4%										
COc1cc(/C=C/C=C/c2ccccc2)c(C(=O)O)c(O)c1CC=C(C)C [Compound 1m, 2-hydroxy-3-isopentenyl-4-methoxy-6-[(1′E,3′E)-phenylbutadien-1′,3′-yl]benzoic acid]	1.07 µg/mL (≈ 2.94 µM)		6.17 µg/mL (≈ 16.9 µM)		21 ± 2.2%			> 2.06 µg/mL	74.4 ± 4.4%	6.17 µg/mL (≈ 16.9 µM)									
COc1cc(C=C2CCC(C)CC2)c(C(=O)O)c(O)c1CC=C(C)C (stereo not shown) [Compound 1n, 2-hydroxy-3-isopentenyl-4-methoxy-6-(4′-methyl-cyclohexylenemethyl)benzoic acid]											0.99 µg/mL	>6.17 µg/mL	17.3 ± 2.4	2.61 µg/mL	>0.69 µg/mL	62.9 ± 2.7			
COc1cc(/C=C/c2ccccc2)c(C(=O)O)c(O)c1C/C=C(\C)CCC=C(C)C [Compound 1o]	1.76 µg/mL (≈ 4.33 µM)		> 2.47 µg/mL		28.1 ± 11.9%	1.47 µg/mL (≈ 3.62 µM)		1.36 µg/mL (≈ 3.35 µM)	61 ± 2.8%										
COc1cc(/C=C/C2CCCCC2)c(C(=O)O)c(O)c1CC=C(C)C [Compound 1p, 2-hydroxy-3-isopentenyl-4-methoxy-6-[(E)-2-cyclohexyl-vinyl]benzoic acid]	1.06 µg/mL (≈ 3.08 µM)		8.62 µg/mL (≈ 25 µM)		81.2 ± 3.2%			> 2.06 µg/mL	82 ± 2.3%	8.62 µg/mL (≈ 25 µM)							the strongest activities	the strongest activities	
COc1cc(/C=C/c2ccc(O)cc2)c(C(=O)O)c(O)c1CC=C(C)C [Compound 1q]	1.86 µg/mL (≈ 5.25 µM)		2.35 µg/mL (≈ 6.63 µM)	significantly stronger than the lead compound cajanine	79.6 ± 2.8%	2.3 µg/mL (≈ 6.49 µM)		0.86 µg/mL (≈ 2.43 µM)	78.9 ± 5.3%										
COc1cc(/C=C/c2ccncc2)c(C(=O)O)c(O)c1CC=C(C)C [Compound 1r, 2-hydroxy-3-isopentenyl-4-methoxy-6-[(E)-2-(pyridin-4-yl)ethenyl]benzoic acid]	6.53 µg/mL (≈ 19.2 µM)		6.36 µg/mL (≈ 18.7 µM)		84.3 ± 6.3%	6.79 µg/mL (≈ 20 µM)		6.35 µg/mL (≈ 18.7 µM)	86.3 ± 5.4%								the strongest activities	the strongest activities	
COc1cc(/C=C(\C(=O)O)c2ccccc2)c(C(=O)O)c(O)c1CC=C(C)C [Compound 1s]	0.75 µg/mL (≈ 1.96 µM)	stronger anti-HIV, HCV viral activities	0.54 µg/mL (≈ 1.41 µM)		89.8 ± 3.2%	0.84 µg/mL (≈ 2.2 µM)	stronger anti-HIV, HCV viral activities	0.85 µg/mL (≈ 2.22 µM)	88.7 ± 6.1%										
COc1cc(/C=C/c2ccccn2)c(C(=O)O)c(O)c1CC=C(C)C [Compound 1t, 2-hydroxy-3-isopentenyl-4-methoxy-6-[(E)-2-(pyrid-2-yl)ethenyl]benzoic acid]	1.07 µg/mL (≈ 3.15 µM)		0.34 µg/mL (≈ 1 µM)	significantly stronger than the lead compound cajanine	85.1 ± 2.1%	1.58 µg/mL (≈ 4.66 µM)		0.61 µg/mL (≈ 1.8 µM)	84.6 ± 1.2%										
COc1cc(/C=C/c2cc(OC)c(OC)c(OC)c2)c(C(=O)O)c(O)c1CC=C(C)C [Compound 1u, 2-hydroxy-3-isopentenyl-4-methoxy-6-[(E)-(3,4,5-trimethoxystyryl)]benzoic acid]	0.16 µg/mL (≈ 0.373 µM)	stronger anti-HIV, HCV viral activities	0.21 µg/mL (≈ 0.49 µM)	significantly stronger than the lead compound cajanine	89.3 ± 2.3%	0.84 µg/mL (≈ 1.96 µM)	stronger anti-HIV, HCV viral activities	0.14 µg/mL (≈ 0.327 µM)	90 ± 3.2%								the strongest activities	the strongest activities	
COc1ccnc(/C=C/c2cc(OC)c(CC=C(C)C)c(O)c2C(=O)O)c1 [Compound 1v, 2-hydroxy-3-isopentenyl-4-methoxy-6-[(E)-2-(4-methoxypyrid-2-yl)ethenyl]benzoic acid]	1.48 µg/mL (≈ 4.01 µM)		2.31 µg/mL (≈ 6.25 µM)		79.9 ± 1.6%			1.25 µg/mL (≈ 3.38 µM)	87.2 ± 2.6%	1.25 µg/mL (≈ 3.38 µM)									
COc1cc(/C=C/c2cc(O)ccn2)c(C(=O)O)c(O)c1CC=C(C)C [Compound 1w, 2-hydroxy-3-isopentenyl-4-methoxy-6-[(E)-2-(4-hydroxypyrid-2-yl)ethenyl]benzoic acid]	2.87 µg/mL (≈ 8.08 µM)		0.19 µg/mL (≈ 0.535 µM)	significantly stronger than the lead compound cajanine	89.3 ± 5.4%	2.06 µg/mL (≈ 5.8 µM)		0.54 µg/mL (≈ 1.52 µM)	88.9 ± 2.5%								the strongest activities	the strongest activities	
COc1cc(/C=C/c2ccc(O)cn2)c(C(=O)O)c(O)c1CC=C(C)C [Compound 1y]	0.63 µg/mL (≈ 1.77 µM)	stronger anti-HIV, HCV viral activities	4.25 µg/mL (≈ 12 µM)		87.6 ± 1.6%	0.86 µg/mL (≈ 2.42 µM)	stronger anti-HIV, HCV viral activities	5.84 µg/mL (≈ 16.4 µM)	89.7 ± 1.9%										
COC(=O)c1c(/C=C/c2ccccc2)cc(OC)cc1OC [Compound 6, methyl 2,4-dimethoxy-6-[(E)-styryl]benzoate]			> 2.05 µg/mL		62.4 ± 7%	> 12.2 µg/mL		> 2.06 µg/mL	74.4 ± 5.2%										> 2.06 µg/mL
COC(=O)c1c(/C=C/c2ccccc2)cc(OC)c(CC=C(C)C)c1O [Compound 8, methyl 2-hydroxy-3-isopentenyl-4-methoxy-6-[(E)-styryl]-benzoate]	1.06 µg/mL (≈ 3.01 µM)	stronger anti-HIV, HCV viral activities	0.69 µg/mL (≈ 1.96 µM)		76.6 ± 5.8%	0.79 µg/mL (≈ 2.24 µM)	stronger anti-HIV, HCV viral activities	3.56 µg/mL (≈ 10.1 µM)	78.9 ± 5.7%										
COC(=O)c1c(/C=C/c2ccc(OC)cc2)cc(OC)c(CC=C(C)C)c1O [Compound 8c, methyl 2-hydroxy-3-isopentenyl-4-methoxy-6-[(E)-4-methoxystyryl]-benzoate]	1.99 µg/mL (≈ 5.2 µM)		> 2.06 µg/mL		67.3 ± 10%	3.06 µg/mL (≈ 8 µM)		4.79 µg/mL (≈ 12.5 µM)	71.9 ± 6.1%										
COC(=O)c1c(/C=C/c2c(OC)cccc2OC)cc(OC)c(CC=C(C)C)c1O [Compound 8d, methyl 2-hydroxy-3-isopentenyl-4-methoxy-6-[(E)-2,6-dimethoxystyryl]-benzoate]	0.86 µg/mL (≈ 2.08 µM)		> 6.17 µg/mL		82 ± 3.2%	5.17 µg/mL (≈ 12.5 µM)		> 9.26 µg/mL	84.4 ± 3.6%								the strongest activities	the strongest activities	
CC/C=C/c1cc(OC)c(CC=C(C)C)c(O)c1C(=O)OC [Compound 8h, methyl 2-hydroxy-3-isopentenyl-4-methoxy-6-[(E)-buten-1-yl]-benzoate]	2.66 µg/mL (≈ 8.74 µM)		1.92 µg/mL (≈ 6.31 µM)		35.4 ± 10.6%	1.42 µg/mL (≈ 4.67 µM)		> 2.06 µg/mL	72.4 ± 4.3%										
